Key:
[1] = test system: PC12 cells; assay: Effect of extracellular zinc on cultured PC12 cells (APP by Western blot); type: cell-based; details: 48 hr
Procedure: 10^6 PC12 cells were plated for 24 hr in the presence of Dulbecco's modified Eagle's medium (DMEM, N2) supplemented with 8% fetal calf serum (FCS). The medium was then removed and replaced with DMEM±2 to 50 μM ZnCl2 or another salt, and no FCS. Cells and media were harvested 48 hr later and aliquots of media, cell cytosol and membrane (following lysis and ultracentrifugation) were assayed for APP by Western blotting with mAb 22C11.

[2] = test system: trypsin; assay: tryptic activity on fluorogenic substrate Z-F-R-AMC; type: biochemical; details: range of doses
[3] = test system: human brain full-length APP; assay: ^125I-APP binding to heparin-Sepharose
Procedure: 100 kDa human brian full-length APP was iodinated by the Chloramine-T method. Iodinated APP (^125I-APP) was then separated from labelling reagents by Sephacryl G25 chromatography.
The column was then washed with 6 ml buffer 1 and the APP eluted with aliquots of high-NaCl buffers.

[4] = target: T1, partially purified human brain APP (Homo sapiens, UniProt P05067); assay: partially purified brain APP binding to heparin-Sepharose, NaCl gradient elution
T1 construct: from tissue; host or cells: human brain membrane extract
T1 sequence (P05067 18-770): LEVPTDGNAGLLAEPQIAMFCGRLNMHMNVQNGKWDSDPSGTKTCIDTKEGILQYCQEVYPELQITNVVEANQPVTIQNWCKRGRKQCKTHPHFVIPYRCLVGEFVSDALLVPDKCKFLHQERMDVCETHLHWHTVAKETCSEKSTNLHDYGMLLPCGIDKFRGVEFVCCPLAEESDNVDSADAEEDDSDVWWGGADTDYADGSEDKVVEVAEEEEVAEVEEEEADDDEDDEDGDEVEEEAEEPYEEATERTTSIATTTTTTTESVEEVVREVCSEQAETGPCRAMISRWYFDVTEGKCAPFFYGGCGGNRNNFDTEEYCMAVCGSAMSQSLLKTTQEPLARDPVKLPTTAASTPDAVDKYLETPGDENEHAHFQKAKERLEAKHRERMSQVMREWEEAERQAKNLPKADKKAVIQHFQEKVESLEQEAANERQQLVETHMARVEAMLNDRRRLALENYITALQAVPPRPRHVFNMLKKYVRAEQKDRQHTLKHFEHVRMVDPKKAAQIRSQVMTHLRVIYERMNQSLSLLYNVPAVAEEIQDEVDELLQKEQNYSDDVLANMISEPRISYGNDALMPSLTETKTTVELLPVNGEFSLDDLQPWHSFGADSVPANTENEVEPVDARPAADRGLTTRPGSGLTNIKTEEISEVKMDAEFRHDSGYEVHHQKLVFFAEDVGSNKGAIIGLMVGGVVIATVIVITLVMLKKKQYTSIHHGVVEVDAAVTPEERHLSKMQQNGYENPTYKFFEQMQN
Procedure: APP binding to heparin-Sepharose was also studied using partially purified APP preparations derived from human brain membranes (according to the method of Moir et al, 1992) or from human serum. Washed brain membrane extract or human serum was adjusted to a NaCl concentration of 350 mM and applied to a Q-Sepharose column (5 cm×5 cm), washed with 350 mM NaCl, 50 mM Tris-Hcl, pH 7.4 (250 ml [×2 for brain membrane extract]) and eluted with 1 M NaCl 50 mM Tris-HCl, pH 7.4 (200 ml at 5 ml/min). This procedure causes an 80-fold enrichment of APP in the peak protein fractions, which are then pooled (Moir et al, 1992). The eluate (20 ml) was desalted into 25 mM Tris, pH 7.4 (30 ml) using a G25 Sephadex column (2.6 cm×40 cm). 15 ml of the product was adjusted to 50 μM Zn^2+ with 2 mM ZnCl2, 50 mM Tris-Hcl, pH 7.4 and the other 15 ml was adjusted to the same volume with 50 mM Tris-HCl, pH 7.4. 10 ml of the deslated Q-Sepharose eluate, containing 6.7 mg protein, was applied to heparin-Sepharose (1.6 cm×5 cm) at 0.35 ml/min, washed with 100 ml of loading buffer, and eluted by a 0 to 1500 mM NaCl gradient (±50 μM Zn^2+) in 52.5 ml at a flow rate of 0.35 ml/min. Fractions (1 ml) representing 20 mM NaCl increments were collected and 30 μl samples of each fraction were assayed for APP by Western blot with mAb 22C11 according to the method in Bush et al. (1990), modified by using PVDF membranes and by reducing the blocking time to 1 hour. The immunoreactive staining of the 130 kDa APP species seen on the blots was quantified by computer-assisted image capture reflectance densitometry (Bush et al., 1992). The 130 kDa reflectance signals on the blots were expressed as the ratio of the signal generated in one sample lane related to the 130 kDa APP reflectance reading of a sample of starting material present on every individual filter as an internal standard.

## [Cl-].[Cl-].[Zn+2] [Zn^2+, ZnCl2]
[1]; 2 μM
  increase in APP released into the media: 50%
[1]; 50 μM
  increase in APP released into the media (peak): 200%
[1]
  cytosolic APP: Smaller increases in cytosolic APP
  membrane associated APP levels: no change in membrane associated APP levels
[2]
  effect on tryptic activity: left tryptic activity unaltered
[3]
  concentration at which increase in ^125I-APP binding to heparin reached a plateau: 75 µM
[3]; 50 μM Zn^2+
  increase in ^125I-APP recovered from the 50-2000 mM NaCl elution fraction: approximately 3 fold
  increase in amount of brain APP binding to heparin: 50%
[3]; 100 μM Zn^2+
  increase in ^125I-APP recovered from the 50-2000 mM NaCl elution fraction: 4.5 fold
[4]; 50 μM Zn^2+
  increase in amount of APP recovered in all fractions: 48%
[4]; 50 μM Zn^2+ (1110 without)
  amount of APP recovered in all fractions: 1644 reflectance units
[4]; 50 μM Zn^2+, protein assay
  reduction in amount of eluted protein: 13%

Reference: US20040265847A1, “Method for treating Alzheimer's disease” (priority 1991, published 2004)
